Measured values: ChEMBL document CHEMBL4417633, “Inhibitory polypeptides specific to WNT inhibitors” (2017)
Where a SMILES comes first, the peptide text is derived from it.

Key:
[1] = molecular target: T1, Dickkopf-related protein 1 (Homo sapiens, UniProt O94907); assay: Inhibition of biotin-labeled human recombinant DKK1 assessed as reduction in DKK1 interaction with LRP-6/Fc incubated overnight by chemiluminescence based Alpha-screen assay
T1 sequence (O94907 whole entry): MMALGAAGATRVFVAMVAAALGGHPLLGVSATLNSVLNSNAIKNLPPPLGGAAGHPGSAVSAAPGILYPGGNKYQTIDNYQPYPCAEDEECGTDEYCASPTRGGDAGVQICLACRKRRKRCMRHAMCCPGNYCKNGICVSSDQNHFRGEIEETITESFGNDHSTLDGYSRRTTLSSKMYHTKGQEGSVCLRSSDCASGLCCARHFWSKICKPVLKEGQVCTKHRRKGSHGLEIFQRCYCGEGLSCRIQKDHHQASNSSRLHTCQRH

[2] = molecular target: T2, Dickkopf WNT-signaling pathway inhibitor 1 (Rattus norvegicus, UniProt A6I0Z0); assay: Inhibition of biotin-labeled rat recombinant DKK1 assessed as reduction in DKK1 interaction with LRP-6/Fc incubated overnight by chemiluminescence based Alpha-screen assay
T2 sequence (A6I0Z0 whole entry): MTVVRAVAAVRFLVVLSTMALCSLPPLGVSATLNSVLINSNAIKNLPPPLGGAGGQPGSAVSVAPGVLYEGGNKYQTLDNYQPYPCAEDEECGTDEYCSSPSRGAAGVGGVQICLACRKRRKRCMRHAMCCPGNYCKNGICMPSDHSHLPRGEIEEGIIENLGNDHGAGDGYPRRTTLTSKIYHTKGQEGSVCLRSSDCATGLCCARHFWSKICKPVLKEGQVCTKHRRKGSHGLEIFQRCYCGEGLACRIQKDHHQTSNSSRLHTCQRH

Structure (SMILES)	IC50 [1]	IC50 [2]
CSCC[C@H](NC(=O)[C@@H]1CCCN1C(=O)[C@H](Cc1ccc(O)cc1)NC(=O)[C@H](CS)NC(=O)[C@H](Cc1cnc[nH]1)NC(=O)[C@H](CCCCN)NC(=O)[C@H](CC(N)=O)NC(=O)[C@H](Cc1cnc[nH]1)NC(=O)[C@H](CCCNC(=N)N)NC(=O)[C@H](CS)NC(=O)[C@H](CCC(N)=O)NC(=O)[C@H](Cc1ccccc1)NC(=O)[C@H](Cc1ccc(O)cc1)NC(=O)[C@H](CO)NC(=O)[C@H](C)NC(=O)[C@@H]1CCCN1C(=O)[C@@H](N)CS)C(=O)N[C@@H](CCC(=O)O)C(=O)N[C@@H](Cc1c[nH]c2ccccc12)C(=O)N[C@@H](CCCNC(=N)N)C(=O)N[C@@H](CS)C(=O)N[C@@H](CC(=O)O)C(=O)NCC(=O)N[C@@H](Cc1ccccc1)C(=O)N1CCC[C@H]1C(=O)N[C@@H](CC(=O)O)C(=O)N[C@@H](CS)C(=O)N[C@@H](CCC(=O)O)C(=O)N[C@@H](CC(=O)O)C(=O)NCC(=O)N[C@@H](CO)C(=O)N[C@@H](CC(=O)O)C(=O)N[C@@H](CCC(=O)O)C(=O)N[C@@H](CC(C)C)C(=O)N[C@@H](CO)C(=O)N[C@@H](CS)C(=O)N1CCC[C@H]1C(=O)N[C@@H](Cc1ccc(O)cc1)C(=O)N[C@@H](CCCNC(=N)N)C(=O)N[C@H](C(=O)O)[C@@H](C)O (H-CPASYFQCRHNKHCYPMEWRCDGFPDCEDGSDELSCPYRT-OH)	≤ 1 nM	≤ 1 nM
CSCC[C@H](NC(=O)[C@@H]1CCCN1C(=O)[C@H](Cc1ccc(O)cc1)NC(=O)[C@H](CS)NC(=O)[C@H](Cc1cnc[nH]1)NC(=O)[C@H](CC(N)=O)NC(=O)[C@H](Cc1ccc(O)cc1)NC(=O)[C@H](CC(N)=O)NC(=O)CNC(=O)[C@H](CS)NC(=O)[C@H](CCC(N)=O)NC(=O)[C@H](Cc1ccccc1)NC(=O)[C@H](Cc1ccc(O)cc1)NC(=O)[C@H](CO)NC(=O)[C@H](C)NC(=O)[C@@H]1CCCN1C(=O)[C@@H](N)CS)C(=O)N[C@@H](CCC(=O)O)C(=O)N[C@@H](Cc1c[nH]c2ccccc12)C(=O)N[C@@H](CCCNC(=N)N)C(=O)N[C@@H](CS)C(=O)N[C@@H](CC(=O)O)C(=O)NCC(=O)N[C@@H](Cc1ccccc1)C(=O)N[C@@H](CC(C)C)C(=O)N[C@@H](CC(=O)O)C(=O)N[C@@H](CS)C(=O)N[C@H](C(=O)N[C@@H](CC(=O)O)C(=O)NCC(=O)N[C@@H](CO)C(=O)N[C@@H](CC(=O)O)C(=O)N[C@@H](CCC(=O)O)C(=O)N[C@@H](CCCCN)C(=O)NCC(=O)N[C@@H](CS)C(=O)N1CCC[C@H]1C(=O)N[C@@H](Cc1ccc(O)cc1)C(=O)N[C@@H](CCCNC(=N)N)C(=O)N[C@H](C(=O)O)[C@@H](C)O)C(C)C (H-CPASYFQCGNYNHCYPMEWRCDGFLDCVDGSDEKGCPYRT-OH)	≤ 1 nM	≤ 1 nM
CC[C@H](C)[C@H](NC(=O)[C@H](CC(N)=O)NC(=O)CNC(=O)[C@H](CS)NC(=O)[C@H](CCC(N)=O)NC(=O)[C@H](Cc1ccccc1)NC(=O)[C@H](Cc1ccc(O)cc1)NC(=O)[C@H](CO)NC(=O)[C@@H]1CCCN1C(=O)[C@@H]1CCCN1C(=O)[C@@H](N)CS)C(=O)N[C@@H](CC(N)=O)C(=O)N[C@@H](Cc1cnc[nH]1)C(=O)N[C@@H](CS)C(=O)N[C@@H](Cc1ccc(O)cc1)C(=O)N1CCC[C@H]1C(=O)N[C@@H](CCSC)C(=O)N[C@@H](CCC(=O)O)C(=O)N[C@@H](Cc1c[nH]c2ccccc12)C(=O)N[C@@H](CCCNC(=N)N)C(=O)N[C@@H](CS)C(=O)N[C@@H](CC(=O)O)C(=O)NCC(=O)N[C@@H](Cc1ccccc1)C(=O)N[C@@H](Cc1cnc[nH]1)C(=O)N[C@@H](CC(=O)O)C(=O)N[C@@H](CS)C(=O)N[C@H](C(=O)N[C@@H](CC(=O)O)C(=O)NCC(=O)N[C@@H](CO)C(=O)N[C@@H](CC(=O)O)C(=O)N[C@@H](CCC(=O)O)C(=O)N[C@@H](CCC(N)=O)C(=O)NCC(=O)N[C@@H](CS)C(=O)N1CCC[C@H]1C(=O)N[C@@H](Cc1ccc(O)cc1)C(=O)N[C@@H](CCCNC(=N)N)C(=O)N[C@H](C(=O)O)[C@@H](C)O)C(C)C (H-CPPSYFQCGNINHCYPMEWRCDGFHDCVDGSDEQGCPYRT-OH)	≤ 1 nM	≤ 1 nM
CC[C@H](C)[C@H](NC(=O)[C@H](CC(C)C)NC(=O)[C@@H]1CCCN1C(=O)[C@H](Cc1ccccc1)NC(=O)[C@H](CS)NC(=O)[C@H](CCSC)NC(=O)[C@H](CCCCN)NC(=O)[C@H](CC(=O)O)NC(=O)[C@@H]1CCCN1C(=O)[C@H](CS)NC(=O)[C@H](CCSC)NC(=O)[C@H](Cc1ccccc1)NC(=O)[C@H](CCC(=O)O)NC(=O)[C@H](CC(N)=O)NC(=O)[C@H](CC(C)C)NC(=O)[C@@H]1CCCN1C(=O)[C@@H](N)CS)C(=O)N[C@@H](Cc1ccccc1)C(=O)N[C@@H](CC(C)C)C(=O)N[C@@H](CS)C(=O)N[C@@H](CC(=O)O)C(=O)NCC(=O)N[C@@H](CCC(=O)O)C(=O)N[C@@H](CC(N)=O)C(=O)N[C@@H](CC(=O)O)C(=O)N[C@@H](CS)C(=O)N[C@@H](Cc1cnc[nH]1)C(=O)N[C@@H](CC(=O)O)C(=O)NCC(=O)N[C@@H](CO)C(=O)N[C@@H](CC(=O)O)C(=O)N[C@@H](CCC(=O)O)C(=O)N[C@@H](C)C(=O)N[C@@H](Cc1ccc(O)cc1)C(=O)N[C@@H](CS)C(=O)N1CCC[C@H]1C(=O)N[C@@H](CO)C(=O)N[C@@H](CCCNC(=N)N)C(=O)N[C@H](C(=O)O)[C@@H](C)O (H-CPLNEFMCPDKMCFPLIFLCDGENDCHDGSDEAYCPSRT-OH)	≤ 1 nM	≤ 1 nM
CSCC[C@H](NC(=O)[C@@H]1CCCN1C(=O)[C@H](Cc1ccc(O)cc1)NC(=O)[C@H](CS)NC(=O)[C@H](Cc1cnc[nH]1)NC(=O)[C@H](CC(N)=O)NC(=O)[C@H](CCCNC(=N)N)NC(=O)[C@H](Cc1cnc[nH]1)NC(=O)[C@H](CCCNC(=N)N)NC(=O)[C@H](CS)NC(=O)[C@H](CCCCN)NC(=O)[C@H](Cc1ccccc1)NC(=O)[C@H](Cc1ccc(O)cc1)NC(=O)[C@H](CO)NC(=O)[C@@H](NC(=O)[C@@H]1CCCN1C(=O)[C@@H](N)CS)C(C)C)C(=O)N[C@@H](CCC(=O)O)C(=O)N[C@@H](Cc1c[nH]c2ccccc12)C(=O)N[C@@H](CCCNC(=N)N)C(=O)N[C@@H](CS)C(=O)N[C@@H](CC(=O)O)C(=O)NCC(=O)N[C@@H](Cc1ccccc1)C(=O)N1CCC[C@H]1C(=O)N[C@@H](CC(=O)O)C(=O)N[C@@H](CS)C(=O)N[C@@H](CC(=O)O)C(=O)N[C@@H](CC(=O)O)C(=O)NCC(=O)N[C@@H](CO)C(=O)N[C@@H](CC(=O)O)C(=O)N[C@@H](CCC(=O)O)C(=O)N[C@@H](CCCNC(=N)N)C(=O)NCC(=O)N[C@@H](CS)C(=O)N1CCC[C@H]1C(=O)N[C@@H](Cc1ccc(O)cc1)C(=O)N[C@@H](CCCNC(=N)N)C(=O)N[C@H](C(=O)O)[C@@H](C)O (H-CPVSYFKCRHRNHCYPMEWRCDGFPDCDDGSDERGCPYRT-OH)	≤ 1 nM	≤ 1 nM
CC[C@H](C)[C@H](NC(=O)[C@H](CC(N)=O)NC(=O)CNC(=O)[C@H](CS)NC(=O)[C@H](CCC(N)=O)NC(=O)[C@H](Cc1ccccc1)NC(=O)[C@H](Cc1ccc(O)cc1)NC(=O)[C@H](CO)NC(=O)[C@H](C)NC(=O)[C@@H]1CCCN1C(=O)[C@@H](N)CS)C(=O)N[C@@H](CC(N)=O)C(=O)N[C@@H](Cc1cnc[nH]1)C(=O)N[C@@H](CS)C(=O)N[C@@H](Cc1ccc(O)cc1)C(=O)N1CCC[C@H]1C(=O)N[C@H](C(=O)N[C@@H](CCC(=O)O)C(=O)N[C@@H](Cc1c[nH]c2ccccc12)C(=O)N[C@@H](CCCNC(=N)N)C(=O)N[C@@H](CS)C(=O)N[C@@H](CC(=O)O)C(=O)NCC(=O)N[C@@H](Cc1ccccc1)C(=O)N[C@@H](CCC(N)=O)C(=O)N[C@@H](CC(=O)O)C(=O)N[C@@H](CS)C(=O)N[C@@H](CC(=O)O)C(=O)N[C@@H](CC(=O)O)C(=O)NCC(=O)N[C@@H](CO)C(=O)N[C@@H](CC(=O)O)C(=O)N[C@@H](CCC(=O)O)C(=O)N[C@@H](Cc1ccc(O)cc1)C(=O)N[C@H](C(=O)N[C@@H](CS)C(=O)N1CCC[C@H]1C(=O)N[C@@H](Cc1ccc(O)cc1)C(=O)N[C@@H](CCCNC(=N)N)C(=O)N[C@H](C(=O)O)[C@@H](C)O)C(C)C)C(C)C (H-CPASYFQCGNINHCYPVEWRCDGFQDCDDGSDEYVCPYRT-OH)	≤ 1 nM	≤ 1 nM
CSCC[C@H](NC(=O)[C@@H]1CCCN1C(=O)[C@H](Cc1ccc(O)cc1)NC(=O)[C@H](CS)NC(=O)[C@H](Cc1cnc[nH]1)NC(=O)[C@H](CC(N)=O)NC(=O)[C@H](Cc1ccc(O)cc1)NC(=O)[C@H](CC(N)=O)NC(=O)[C@H](CCCNC(=N)N)NC(=O)[C@H](CS)NC(=O)[C@H](CCC(N)=O)NC(=O)[C@H](Cc1ccccc1)NC(=O)[C@H](Cc1ccc(O)cc1)NC(=O)[C@H](CO)NC(=O)[C@H](C)NC(=O)[C@@H]1CCCN1C(=O)[C@@H](N)CS)C(=O)N[C@@H](CCC(=O)O)C(=O)N[C@@H](Cc1c[nH]c2ccccc12)C(=O)N[C@@H](CCCNC(=N)N)C(=O)N[C@@H](CS)C(=O)N[C@@H](CC(=O)O)C(=O)NCC(=O)N[C@@H](Cc1ccccc1)C(=O)N[C@@H](CCC(=O)O)C(=O)N[C@@H](CC(=O)O)C(=O)N[C@@H](CS)C(=O)N[C@@H](CC(C)C)C(=O)N[C@@H](CC(=O)O)C(=O)NCC(=O)N[C@@H](CO)C(=O)N[C@@H](CC(=O)O)C(=O)N[C@@H](CCC(=O)O)C(=O)N[C@H](C(=O)N[C@@H](CC(=O)O)C(=O)N[C@@H](CS)C(=O)N1CCC[C@H]1C(=O)N[C@@H](Cc1ccc(O)cc1)C(=O)N[C@@H](CCCNC(=N)N)C(=O)N[C@H](C(=O)O)[C@@H](C)O)[C@@H](C)O (H-CPASYFQCRNYNHCYPMEWRCDGFEDCLDGSDETDCPYRT-OH)	≤ 1 nM	≤ 1 nM
